{"source": "patent US10603289B2", "about": "“Process for the manufacture of ajoene derivatives” (DANMARKS TEKNISKE UNIVERSITET, priority 2010, dated 2020)", "key": {"[1]": {"tested_on": "PA2069", "experiment": "DNA microarray, gene expression in ajoene treated P. aeruginosa cultures", "type": "cell-based", "details": "E:Z 1:4, OD600 2.0", "description": "(§1) DNA microarray analysis was used to identify genes regulated by ajoene treatment. As a reference we have used the QS regulon previously identified by Hentzer et al., [M. Hentzer et al., EMBO J., 2003, 22, p. […] Exponential growing P. aeruginosa cultures were treated with the following four concentrations of ajoene; 10 μg/ml (42.7 μM), 20 μg/ml (85.4 μM), 40 μg/ml (170.8 μM) and 80 μg/ml (341.6 μM). (E,Z) ajoene having an E:Z ratio of 1:4 was used. […] The samples were retrieved at an OD600 nm of 2.0 (optical density) because previous investigations have shown the highest activity among the QS genes at that cell density. Gene expression of the treated cultures was compared to an untreated control."}, "[2]": {"tested_on": "PA2300 chic", "experiment": "DNA microarray, gene expression in ajoene treated P. aeruginosa cultures", "type": "cell-based", "details": "E:Z 1:4, OD600 2.0", "description": "as §1"}, "[3]": {"tested_on": "PA4142", "experiment": "DNA microarray, gene expression in ajoene treated P. aeruginosa cultures", "type": "cell-based", "details": "E:Z 1:4, OD600 2.0", "description": "as §1"}, "[4]": {"tested_on": "lasB", "experiment": "RT-PCR verification of the microarray data", "type": "cell-based, P. aeruginosa", "details": "80 μg/ml ajoene; E:Z 1:4", "description": "(§2) To verify the microarray data, RT-PCR was performed with two of the key QS genes; lasB and rhlA (see FIG. 3). When comparing the two methods the repression of both the lasB and rhlA gene expression follow the same trend, with a general slightly increase in fold reduction observed with the RT-PCR based method. […] The expression of rhlA is primarily controlled by the Rhl QS system and the signal molecule BHL whereas the expression of lasB is affected by both the Las and the Rhl QS systems and the concentration of the signal molecules OdDHL and BHL. According to Rasmussen et al., [Rasmussen et al., Microbiology, 2005, 151, p. 1325-1340], the genes listed in table 3 are (except prpL which regulation is entirely governed by the Las QS system) subject to regulation by both the Las and Rhl QS systems. […] (E,Z) ajoene having an E:Z ratio of 1:4 was used in these experiments."}, "[5]": {"tested_on": "rhlA", "experiment": "RT-PCR verification of the microarray data", "type": "cell-based, P. aeruginosa", "details": "80 μg/ml ajoene; E:Z 1:4", "description": "as §2"}, "[6]": {"tested_on": "rhamnolipid production of planktonic grown P. aeruginosa", "experiment": "Rhamnolipid concentration in cultures quantified by LC-MS", "type": "cell-based", "details": "for rhamnolipid content: OD=1.5 (FIG. 4)", "source_text": "Samples retrieved at OD600=1.5 (dark grey bars), and at OD600=2.0 (light grey bars). Data represent the average of tree individual experiments. Error bars are mean±SD.\nTo exemplify the actual efficacy of ajoene in inhibiting synthesis of one of the major virulence factors, the concentration of rhamnolipid present in the cultures grown for DNA array and RT-PCR where directly quantified by LC-MS. The production of rhamnolipids is initiated early in stationary phase co-ordinately regulated by the Rhl QS system encoded by the rhlA, rhlB and rhlC genes (PA3479, PA3478 and PA1131) [V. E. Wagner et al., J Bacteriol., 2003, 185, p. 2080-2095 and R. Rahim et al., Mol Microbiol., 2001, 40, p. 708-718]. Samples where therefore retrieved at an OD600 nm of 1.5 and 2.0 to monitor rhamnolipid production before and after the synthesis was fully initiated. […] This concentration therefore almost completely blocks rhamnolipid synthesis. (E,Z) ajoene having an E:Z ratio of 1:4 was used."}, "[7]": {"tested_on": "P. aeruginosa biofilms exposed to PMNs", "experiment": "Flow chamber biofilm exposed to PMNs, propidium iodide staining", "type": "cell-based", "details": "biofilm grown four days in the presence of 100 μg/ml ajoene; E:Z 1:4", "description": "A) The biofilm has grown without ajoene in the medium. B) The biofilm has grown in the presence of 100 μg/mL ajoene in the medium. Red fluorescence indicates necrotic PMN's leaking out their content of DNA (as stained by PI). Green fluorescence indicates top areas of the P. aeruginosa biofilm.\nBiofilms exposed to PMN leukocytes produce rhamnolipids that function as a shield and protects the biofilm bacteria from phagocytosis. […] 20-42]. The P. aeruginosa biofilms were grown for four days either in the presence or absence of 100 μg/ml ajoene. When PMNs subsequently were introduced in the flow chambers on top of the biofilms grown in the absence of ajoene, propidium iodide (PI) staining indicated necrosis of the PMNs (FIG. 5A). […] Ajoene treatment therefore rescues the PMN leukocytes by blocking biofilm synthesis of […]. It has previously been shown that rescued PMN's can phagocytose biofilm bacteria [T. Bjarnsholt et al., Microbiology, 2005, 151, p. 3873-3880]. (E,Z) ajoene having an E:Z ratio of 1:4 was used."}, "[8]": {"tested_on": "biofilms of P. aeruginosa PAO1", "experiment": "In vitro flow cell biofilm killing, live dead stains and CSLM", "type": "cell-based", "details": "tobramycin or ajoene only", "description": "Dead cells are stained with the DNA stain PI (Dark grey/black). The biofilm were visualized with CSLM. C) Implant model treated with ajoene and tobramycin.\n3873-3880]. It was however unknown what was the active ingredient in the garlic extract. Thus. biofilms of P. aeruginosa strain were either grown in the presence or absence of 100 μg/ml ajoene. At day three the biofilms were treated with 10 μg/ml tobramycin for 24 hours. […] 10 μg/ml tobramycin was therefore chosen for the present study."}, "[9]": {"experiment": "Biological activity after further purification, assays as described in the examples", "details": "after column chromatography further purified, e.g. reverse phase HPLC; or isolated pure isomers", "source_text": "The purity of (E,Z)-ajoene after the above procedure may be 95-99.5%, such as 97-99.5%, 98-99.5%, 99-99.5% such as about 99.5%. […] This was also found when isolating pure (E)-ajoene and/or pure (Z)-ajoene, e.g. using HPLC. It is speculated that small amounts of ajoene derived chemistry, i.e. compounds related to ajoene, such as less than 5%, 3%, 2%, 1%, such as less than 0.5% may be highly important in the stabilisation of (E,Z)-ajoene and derivatives, towards degradation, e.g. oxidation, reduction and or cleavage, both in vitro but importantly also in vivo."}}, "data": [{"smiles": "C=CCSSC=CC[S+]([O-])CC=C", "note": "(stereo not drawn) [ajoene, (E,Z)-4,5,9-trithiadodeca-1,6,11-triene-9-oxide]", "values": [{"measurement": "fold change in gene expression compared to an untreated control", "setting": "[1]; [Ajoene] 10 μg/ml", "value": "−2.3", "unit": "fold"}, {"measurement": "fold change in gene expression compared to an untreated control", "setting": "[1]; [Ajoene] 20 μg/ml", "value": "−2.4", "unit": "fold"}, {"measurement": "fold change in gene expression compared to an untreated control", "setting": "[1]; [Ajoene] 40 μg/ml", "value": "−4.0", "unit": "fold"}, {"measurement": "fold change in gene expression compared to an untreated control", "setting": "[1]; [Ajoene] 80 μg/ml", "value": "−5.3", "unit": "fold"}, {"measurement": "fold change in gene expression compared to an untreated control", "setting": "[2]; [Ajoene] 10 μg/ml", "value": "−2.5", "unit": "fold"}, {"measurement": "fold change in gene expression compared to an untreated control", "setting": "[2]; [Ajoene] 20 μg/ml", "value": "−2.1", "unit": "fold"}, {"measurement": "fold change in gene expression compared to an untreated control", "setting": "[2]; [Ajoene] 40 μg/ml", "value": "−5.1", "unit": "fold"}, {"measurement": "fold change in gene expression compared to an untreated control", "setting": "[2]; [Ajoene] 80 μg/ml", "value": "−24.6", "unit": "fold"}, {"measurement": "fold change in gene expression compared to an untreated control", "setting": "[3]; [Ajoene] 10 μg/ml", "value": "−2.0", "unit": "fold"}, {"measurement": "fold change in gene expression compared to an untreated control", "setting": "[3]; [Ajoene] 20 μg/ml", "value": "−2.2", "unit": "fold"}, {"measurement": "fold change in gene expression compared to an untreated control", "setting": "[3]; [Ajoene] 40 μg/ml", "value": "−2.7", "unit": "fold"}, {"measurement": "fold change in gene expression compared to an untreated control", "setting": "[3]; [Ajoene] 80 μg/ml", "value": "−5.1", "unit": "fold"}, {"measurement": "lowering of expression of lasB (RT-PCR)", "setting": "[4]", "value": "~5", "unit": "fold"}, {"measurement": "lowering of expression of rhlA (RT-PCR)", "setting": "[5]", "value": "~12", "unit": "fold"}, {"measurement": "rhamnolipid content compared to the untreated culture", "setting": "[6]; 20 μg/ml ajoene, OD600 nm of 2.0", "value": "approximately ⅓"}, {"measurement": "rhamnolipid content", "setting": "[6]; 40 μg/ml ajoene", "value": "below the detection level"}, {"measurement": "rhamnolipid present in the sample", "setting": "[6]; 80 μg/ml ajoene", "value": "almost no detectable rhamnolipid"}, {"measurement": "rhamnolipid content", "setting": "[6]; 80 μg/ml ajoene", "value": "below the detection level"}, {"measurement": "necrosis of PMNs on biofilm (PI staining)", "setting": "[7]", "value": "no necrosis of the PMNs was observed"}, {"measurement": "killing of the biofilm bacteria, single agent", "setting": "[8]", "value": "no or only minor killing"}, {"measurement": "biological activity after further purification", "setting": "[9]", "value": "lost all or parts of its biological activity"}]}]}
